Measurements as given in US10730863B2, “Bridged bicyclic compounds as farnesoid X receptor modulators” (BRISTOL-MYERS SQUIBB COMPANY, priority 2017, dated 2020).
pEC50: −log10 of the molar value.

Each molecule was assayed against FXR (Homo sapiens (Human), UniProt Q96RI1) (assay: FXR EC50 (FXR agonist activity reported with each example)).
Type: cell-based

Chain of FXR (Q96RI1 262-486): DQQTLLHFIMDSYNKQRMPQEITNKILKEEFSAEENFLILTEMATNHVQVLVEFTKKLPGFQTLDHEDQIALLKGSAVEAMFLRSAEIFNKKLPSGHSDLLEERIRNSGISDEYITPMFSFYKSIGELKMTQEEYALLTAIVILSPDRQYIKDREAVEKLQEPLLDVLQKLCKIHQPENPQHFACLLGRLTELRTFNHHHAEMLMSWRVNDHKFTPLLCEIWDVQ

| SMILES | pEC50 |
| --- | --- |
| O=C(O)c1ccc(C23CCC(OCc4c(-c5c(Cl)cccc5Cl)noc4C4CC4)(CC2)CC3)nc1 [Example 138, 6-(4-((5-cyclopropyl-3-(2,6-dichlorophenyl)isoxazol-4-yl)methoxy)bicyclo[2.2.2]octan-1-yl)nicotinic acid] | 6.36 |
| NC(=O)c1ccc(C23CCC(CNc4c(-c5c(Cl)cccc5Cl)noc4C4CC4)(CC2)CO3)cc1 [Example 208, 4-(4-(((5-cyclopropyl-3-(2,6-dichlorophenyl)isoxazol-4-yl)amino)methyl)-2-oxabicyclo[2.2.2]octan-1-yl)benzamide] | 6.15 |
| O=C(O)c1cc(C(F)(F)F)c2cc(CCC34CCC(OCc5c(-c6c(Cl)cncc6Cl)noc5C5CC5)(CC3)CC4)ccc2n1 [Example 430, 6-(2-(4-((5-cyclopropyl-3-(3,5-dichloropyridin-4-yl)isoxazol-4-yl)methoxy)bicyclo[2.2.2]octan-1-yl)ethyl)-4-(trifluoromethyl)quinoline-2-carboxylic acid] | 7.62 |
| O=C(O)c1ccc(-c2noc(C34CCC(COCc5c(-c6ccccc6OC(F)(F)F)noc5C5CC5)(CC3)CO4)n2)cc1 [Example 209, 4-(5-(4-(((5-cyclopropyl-3-(2-(trifluoromethoxy)phenyl)isoxazol-4-yl)methoxy)methyl)-2-oxabicyclo[2.2.2]octan-1-yl)-1,2,4-oxadiazol-3-yl)benzoic acid] | 6.33 |
| O=C(O)c1cc(OC(F)F)c2cc(OCC34CCC(OCc5c(-c6c(Cl)cncc6Cl)noc5C5CC5)(CC3)CO4)ccc2n1 [Example 471, 6-((4-((5-cyclopropyl-3-(3,5-dichloropyridin-4-yl)isoxazol-4-yl)methoxy)-2-oxabicyclo[2.2.2]octan-1-yl)methoxy)-4-(difluoromethoxy)quinoline-2-carboxylic acid] | 6.70 |
| O=C(O)c1cc(O)c2cc(OCC34CCC(OCc5c(-c6c(Cl)cncc6Cl)noc5C5CC5)(CC3)CC4)ccc2n1 [Example 327, 6-((4-((5-cyclopropyl-3-(3,5-dichloropyridin-4-yl)isoxazol-4-yl)methoxy)bicyclo[2.2.2]octan-1-yl)methoxy)-4-hydroxyquinoline-2-carboxylic acid] | 6.77 |
| O=C(O)c1cccc(-c2noc(C34CCC(OCc5c(-c6c(Cl)cncc6Cl)noc5C5CC5)(CC3)CC4)n2)n1 [Example 247, 6-(5-(4-((5-cyclopropyl-3-(3,5-dichloropyridin-4-yl)isoxazol-4-yl)methoxy)bicyclo[2.2.2]octan-1-yl)-1,2,4-oxadiazol-3-yl)picolinic acid] | 6.24 |
| O=C(O)c1cc(-c2noc(C34CCC(OCc5c(-c6c(Cl)cncc6Cl)noc5C5CC5)(CC3)CC4)n2)cc(OC2CC2)n1 [Example 260, 6-cyclopropoxy-4-(5-(4-((5-cyclopropyl-3-(3,5-dichloropyridin-4-yl)isoxazol-4-yl)methoxy)bicyclo[2.2.2]octan-1-yl)-1,2,4-oxadiazol-3-yl)picolinic acid] | 7.41 |
| Cc1nc(C23CCC(/C=C/c4c(-c5c(Cl)cncc5Cl)noc4C4CC4)(CC2)CC3)sc1C(=O)O [Example 509, (E)-2-(4-(2-(5-cyclopropyl-3-(3,5-dichloropyridin-4-yl)isoxazol-4-yl)vinyl)bicyclo[2.2.2]octan-1-yl)-4-methylthiazole-5-carboxylic acid] | 7.40 |
| O=C(O)c1ccc(F)c(OCC23CCC(OCc4c(-c5c(Cl)cccc5Cl)noc4C4CC4)(CC2)CC3)c1 [Example 92, 3-((4-((5-cyclopropyl-3-(2,6-dichlorophenyl)isoxazol-4-yl)methoxy)bicyclo[2.2.2]octan-1-yl)methoxy)-4-fluorobenzoic acid] | 7.64 |
| O=C(O)c1cccc2nc(C34CCC(/C=C\c5c(-c6c(Cl)cccc6Cl)noc5C5CC5)(CC3)CC4)sc12 [Example 502, (Z)-2-(4-(2-(5-cyclopropyl-3-(2,6-dichlorophenyl)isoxazol-4-yl)vinyl)bicyclo[2.2.2]octan-1-yl)benzo[d]thiazole-7-carboxylic acid] | 5.82 |
| N#CC12CCC(OCc3c(-c4c(Cl)cccc4Cl)noc3C3CC3)(CC1)CC2 [Intermediate 70A, 4-((5-Cyclopropyl-3-(2,6-dichlorophenyl)isoxazol-4-yl)methoxy)bicyclo[2.2.2]octane-1-carbonitrile] | 6.33 |
| O=C(O)c1cc(F)cc2nc(OCC34CCC(/C=C/c5c(-c6c(Cl)cncc6Cl)noc5C5CC5)(CC3)CC4)sc12 [Example 469, (E)-2-((4-(2-(5-cyclopropyl-3-(3,5-dichloropyridin-4-yl)isoxazol-4-yl)vinyl)bicyclo[2.2.2]octan-1-yl)methoxy)-5-fluorobenzo[d]thiazole-7-carboxylic acid] | 6.72 |
| O=C(O)c1ccc(OCC23CCC(OCc4c(-c5c(Cl)cccc5Cl)noc4C4CC4)(CC2)CC3)nc1 [Example 107, 6-((4-((5-cyclopropyl-3-(2,6-dichlorophenyl)isoxazol-4-yl)methoxy)bicyclo[2.2.2]octan-1-yl)methoxy)nicotinic acid] | 7.11 |
| O=C(O)c1ccnc(C#CC23CCC(OCc4c(-c5c(Cl)cccc5Cl)noc4C4CC4)(CC2)CC3)c1 [Example 132, 2-((4-((5-cyclopropyl-3-(2,6-dichlorophenyl)isoxazol-4-yl)methoxy)bicyclo[2.2.2]octan-1-yl)ethynyl)isonicotinic acid] | 5.46 |
| CC(C)(C#N)c1ccc(C23CCC(/C=C/c4c(-c5c(Cl)cncc5Cl)noc4C4CC4)(CC2)CO3)cc1 [Example 475, (E)-2-(4-(4-(2-(5-cyclopropyl-3-(3,5-dichloropyridin-4-yl)isoxazol-4-yl)vinyl)-2-oxabicyclo[2.2.2]octan-1-yl)phenyl)-2-methylpropanenitrile] | 5.82 |
| O=C(O)c1cccc(-c2noc(C34CCC(OCc5c(-c6c(Cl)cncc6Cl)noc5C5CC5)(CC3)CO4)n2)c1 [Example 206] | 6.31 |
| O=C(O)c1ccc2nc(C34CCC(OCc5c(-c6c(Cl)cccc6Cl)noc5C5CC5)(CC3)CC4)ncc2c1 [Example 24, 2-(4-((5-cyclopropyl-3-(2,6-dichlorophenyl)isoxazol-4-yl)methoxy)bicyclo[2.2.2]octan-1-yl)quinazoline-6-carboxylic acid] | 6.60 |
| O=C(O)c1cc(C(F)(F)F)c2cc(OCC34CCC(OCc5c(-c6c(Cl)cccc6Cl)noc5C5CC5)(CC3)CC4)ccc2n1 [Example 100, 6-((4-((5-cyclopropyl-3-(2,6-dichlorophenyl)isoxazol-4-yl)methoxy)bicyclo[2.2.2]octan-1-yl)methoxy)-4-(trifluoromethyl) quinoline-2-carboxylic acid] | 8.15 |
| O=C(O)c1cccc(OCC23CCC(OCc4c(-c5c(Cl)cccc5Cl)noc4C4CC4)(CC2)CC3)c1F [Example 96, 3-((4-((5-cyclopropyl-3-(2,6-dichlorophenyl)isoxazol-4-yl)methoxy)bicyclo[2.2.2]octan-1-yl)methoxy)-2-fluorobenzoic acid] | 6.92 |
| COC(=O)c1ccc(-c2noc(C34CCC(OCc5c(-c6ccccc6C(F)(F)F)noc5C5CC5)(CC3)CC4)n2)cc1 [Example 34] | 5.29 |
| NC(=O)c1cc(F)c2nc(C(O)C34CCC(OCc5c(-c6c(Cl)cccc6Cl)noc5C5CC5)(CC3)CC4)sc2c1 (stereo not shown) [Example 123, 2-((4-((5-cyclopropyl-3-(2,6-dichlorophenyl)isoxazol-4-yl)methoxy)bicyclo[2.2.2]octan-1-yl)(hydroxy)methyl)-4-fluorobenzo[d]thiazole-6-carboxamide] | 6.55 |
